SMILES strings stand for the structures.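 These data come from cells grown in 96-well plates and exposed to compound for 48 hours at five concentrations. GI50 = concentration required for 50% inhibition of growth.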 The source made the active and inactive calls. No stated cut-off is given here; in the data, active = GI50 up to about 1.1 µM and inactive = higher.

Test systems include 786-0; HOP-62; MOLT-4; NCI-H226; NCI-H23; OVCAR-3; OVCAR-4; RPMI-8226; SF-295; SK-MEL-2; SK-MEL-5; SK-OV-3; UACC-257; DU-145; MCF7; SNB-75; A498; BT-549; T47D.
Assay in all cases: NCI tumour cell line growth inhibition, 48 h

For the compound `COc1ccc(-c2onc(-c3c(C)cc(C)cc3C)c2C2=NCCCN2)cc1`, the GI50 with 786-0 is 31.8 µM (inactive); in the assay on HOP-62, > 100 µM (inactive); with MOLT-4 it was 41 µM (inactive); in the assay with NCI-H226 it was 36.4 µM (inactive); in the assay on NCI-H23, > 100 µM (inactive); with OVCAR-3 it was 57 µM (inactive). Moreover, the GI50 with OVCAR-4 was 49.9 µM (inactive); in the assay with RPMI-8226, 23.6 µM (inactive); in the assay on SF-295 it was 22.8 µM (inactive); in the assay on SK-MEL-2, 36.1 µM (inactive); in the assay with SK-MEL-5 it was 23 µM (inactive); in the assay with SK-OV-3 it was 30.6 µM (inactive). For the same compound, in the assay on UACC-257, the GI50 is 21.1 µM (inactive).
With `CCSc1n/c(=C\c2ccco2)c2nncn12`, the GI50 in the assay with 786-0, in the assay with DU-145, in the assay on HOP-62, with MCF7, in the assay on MOLT-4 and in the assay on NCI-H226 was > 100 µM (inactive) each time. Further, the GI50 with NCI-H23, with OVCAR-3, in the assay with RPMI-8226, with SF-295, in the assay with SK-MEL-2 and in the assay on SK-MEL-5 was > 100 µM (inactive) each time. For the same compound, the GI50 with SK-OV-3 and in the assay on SNB-75 was > 100 µM (inactive) throughout.
`C(=N/c1ccccc1C1SCCCS1)/c1ccccc1`: the GI50 with 786-0, with A498, with BT-549, in the assay on DU-145, with HOP-62 and with MCF7 was > 100 µM (inactive) each time. For the same compound, the GI50 with MOLT-4, in the assay on NCI-H226, with NCI-H23, in the assay with OVCAR-3, in the assay on OVCAR-4 and in the assay with RPMI-8226 was > 100 µM (inactive) each time. In addition, the GI50 in the assay on SF-295, with SK-MEL-2, in the assay on SK-MEL-5, in the assay with SK-OV-3, with SNB-75 and with UACC-257 was > 100 µM (inactive) throughout.
In the case of `COc1ccc(CC(=O)NCCc2ccc(OC)c(OC)c2OC)cc1`, the GI50 in the assay on 786-0 is 41.6 µM (inactive); in the assay with A498, > 100 µM (inactive); in the assay with HOP-62 it was > 100 µM (inactive); in the assay on MOLT-4 it was > 100 µM (inactive); in the assay with NCI-H226 it was > 100 µM (inactive); with NCI-H23 it was > 100 µM (inactive). Also, the GI50 in the assay with RPMI-8226, with SF-295, in the assay with SK-MEL-2, with SK-MEL-5, with SK-OV-3 and with SNB-75 was > 100 µM (inactive) each time. In addition, the GI50 with UACC-257 was > 100 µM (inactive).
`CCC(C)(C)/C(CC(O)(C(F)(F)F)C(F)(F)F)=N\O`: the GI50 in the assay with 786-0, in the assay on A498, with DU-145, with HOP-62, in the assay on MOLT-4 and with NCI-H226 was > 100 µM (inactive) throughout. Further, the GI50 with NCI-H23, in the assay with OVCAR-3, in the assay on OVCAR-4, in the assay on RPMI-8226, in the assay on SF-295 and in the assay on SK-MEL-2 was > 100 µM (inactive) throughout. For the same compound, the GI50 in the assay on SK-MEL-5, in the assay on SK-OV-3, with SNB-75 and in the assay with T47D was > 100 µM (inactive) each time.
Regarding `Cc1ccc(C(=O)O)cc1S(=O)(=O)Nn1cnc2ccc(S(=O)(=O)Nc3ccccc3C(=O)O)cc2c1=O`, the GI50 in the assay with 786-0, in the assay with BT-549, with DU-145, in the assay with HOP-62, in the assay with MCF7 and in the assay on MOLT-4 was > 100 µM (inactive) throughout. Moreover, the GI50 with NCI-H226 is 83.8 µM (inactive); with NCI-H23 it was > 100 µM (inactive); in the assay on OVCAR-3 it was > 100 µM (inactive); with OVCAR-4 it was > 100 µM (inactive); in the assay with RPMI-8226 it was 54.5 µM (inactive); in the assay on SF-295, 26.1 µM (inactive). For the same compound, the GI50 in the assay on SK-MEL-2 is 61 µM (inactive); in the assay with SK-OV-3, > 100 µM (inactive); in the assay with SNB-75, > 100 µM (inactive); with UACC-257 it was > 100 µM (inactive).
Consider `Cc1cc(C)nc(NS(=O)(=O)c2ccc(NC(=O)c3c4ccccc4nc4ccccc34)cc2)n1`, for which the GI50 in the assay on 786-0 is 49 µM (inactive); with A498 it was > 100 µM (inactive); with BT-549, 96.4 µM (inactive); in the assay on DU-145, 93.1 µM (inactive); in the assay on HOP-62 it was 61.7 µM (inactive); in the assay on MCF7, > 100 µM (inactive). Further, the GI50 was > 100 µM (inactive) in the assay on MOLT-4; 35.9 µM (inactive) in the assay with NCI-H226; 44.2 µM (inactive) with NCI-H23; 56.9 µM (inactive) with OVCAR-3; > 100 µM (inactive) in the assay with OVCAR-4; 47.3 µM (inactive) in the assay with RPMI-8226. In addition, the GI50 is > 100 µM (inactive) in the assay on SF-295; > 100 µM (inactive) in the assay on SK-MEL-2; 38.1 µM (inactive) in the assay on SK-MEL-5; > 100 µM (inactive) with SK-OV-3; > 100 µM (inactive) in the assay on SNB-75; > 100 µM (inactive) in the assay on UACC-257.
`CC(C)(CN1CCCCC1)C(=O)CC(SCCS(=O)(=O)O)c1ccc(Cl)cc1` (stereo not drawn): the GI50 in the assay on 786-0 is 3.31 µM (inactive); in the assay on A498 it was 4.26 µM (inactive); in the assay with BT-549, 8.04 µM (inactive); in the assay on DU-145, 9.75 µM (inactive); in the assay with HOP-62, 11.5 µM (inactive); with MCF7 it was 3.3 µM (inactive). For the same compound, the GI50 is 2.92 µM (inactive) in the assay on MOLT-4; 12 µM (inactive) with NCI-H226; 3.88 µM (inactive) in the assay on NCI-H23; 5.22 µM (inactive) with OVCAR-3; 3.84 µM (inactive) in the assay on OVCAR-4; 3.31 µM (inactive) with RPMI-8226. Also, the GI50 is 0.925 µM (active) in the assay on SF-295; 2.22 µM (inactive) with SK-MEL-2; 7.41 µM (inactive) in the assay with SK-MEL-5; 15.5 µM (inactive) with SK-OV-3; 4.32 µM (inactive) with SNB-75; 6.67 µM (inactive) in the assay with UACC-257.
Consider `COc1cccc(C2c3cc4c(cc3OC(N3CCCC3)C2C)OCO4)c1OC` (stereo not drawn), for which the GI50 with 786-0 is 3.89 µM (inactive); in the assay on DU-145, 2.01 µM (inactive); in the assay with HOP-62, 8.17 µM (inactive); in the assay on MCF7 it was 4.58 µM (inactive); with MOLT-4 it was 2.77 µM (inactive); with NCI-H23 it was 4.37 µM (inactive). The GI50 in the assay with OVCAR-3 was 1.66 µM (inactive); with RPMI-8226, 3.61 µM (inactive); in the assay on SF-295, 1.92 µM (inactive); in the assay on SK-MEL-2 it was 3.89 µM (inactive); with SK-MEL-5 it was 2.87 µM (inactive); in the assay with T47D, 2.47 µM (inactive). Also, in the assay with UACC-257, the GI50 was 1.72 µM (inactive).
As to `Cc1nc2c(O)cc3c4c(n(Cc5ccccc5)c3c2nc1C)C(=O)CCC4`, the GI50 in the assay with 786-0 is 15.1 µM (inactive); with A498, 34 µM (inactive); in the assay on DU-145 it was 7.13 µM (inactive); in the assay with HOP-62, 12.7 µM (inactive); in the assay on MCF7, 19.1 µM (inactive); with MOLT-4 it was > 100 µM (inactive). Also, the GI50 with NCI-H226 is > 100 µM (inactive); in the assay on NCI-H23, 51.2 µM (inactive); in the assay with OVCAR-3, 28.2 µM (inactive); in the assay on OVCAR-4, 13.9 µM (inactive); in the assay with RPMI-8226, > 100 µM (inactive); in the assay on SF-295 it was 34 µM (inactive). Besides, the GI50 is 10.1 µM (inactive) in the assay with SK-MEL-2, 25.5 µM (inactive) in the assay with SK-MEL-5, 14.6 µM (inactive) in the assay on SK-OV-3 and > 100 µM (inactive) in the assay with UACC-257.
On to `COC(=O)[C@]1(c2cc3ccccc3n2S(=O)(=O)c2ccccc2)CC2CN(C(=O)OCc3ccccc3)C1C1OC(C)(C)OC21` (stereo partly drawn), for which the GI50 in the assay on 786-0, with BT-549, with DU-145, in the assay with HOP-62, in the assay on MCF7 and in the assay on MOLT-4 was > 100 µM (inactive) each time. In addition, the GI50 with NCI-H226 is 93.1 µM (inactive); with NCI-H23, > 100 µM (inactive); in the assay on OVCAR-3, > 100 µM (inactive); with OVCAR-4, > 100 µM (inactive); with RPMI-8226, 60.1 µM (inactive); with SF-295, > 100 µM (inactive). Also, the GI50 in the assay on SK-MEL-2 is > 100 µM (inactive); in the assay with SK-MEL-5, > 100 µM (inactive); in the assay with SK-OV-3, > 100 µM (inactive); with SNB-75, 80.4 µM (inactive); with UACC-257, > 100 µM (inactive).
Turning to `COC(=O)C(COC(=O)/C=C/c1ccc(OC(C)=O)c(OC(C)=O)c1)OC(=O)/C=C/c1ccc(OC(C)=O)c(OC(C)=O)c1` (stereo not drawn), the GI50 was 11.8 µM (inactive) with 786-0; 16.5 µM (inactive) in the assay with A498; 15.1 µM (inactive) in the assay on BT-549; 12.1 µM (inactive) with DU-145; 10.2 µM (inactive) in the assay on HOP-62; 6.61 µM (inactive) with MCF7. In addition, the GI50 in the assay on MOLT-4 was 1.95 µM (inactive); in the assay on NCI-H226, 24.5 µM (inactive); with NCI-H23 it was 12 µM (inactive); with OVCAR-3, 6.32 µM (inactive); with OVCAR-4, 15.3 µM (inactive); in the assay on RPMI-8226 it was 11.6 µM (inactive). Besides, the GI50 was 14.3 µM (inactive) with SF-295, 12.2 µM (inactive) in the assay with SK-MEL-2, 14.8 µM (inactive) with SK-MEL-5 and 15.7 µM (inactive) in the assay on UACC-257.

For the origin of these results see ChEMBL document CHEMBL1201862, “PubChem BioAssay data set” (2004).
